{"source": "patent US5177075A", "about": "“Substituted dihydroisoquinolinones and related compounds as potentiators of the lethal effects of radiation and certain chemotherapeutic agents; selected compounds, analogs and process” (priority 1991, dated 1993)", "key": {"[1]": {"settings": "cited from earlier work; for peripheral neuropathy and convulsions: mice"}, "hypoxic tumor cells": {"system": "hypoxic tumor cells", "settings": "cited from earlier work"}, "tumors": {"system": "tumors", "settings": "cited from earlier work"}, "[2]": {"molecular_target": "T1, Poly(ADP-ribose) synthetase (Bos taurus, UniProt P18493)", "T1 construct": "Poly (ADP-ribose) synthetase from calf thymus; from tissue; host or cells: calf thymus", "T1 sequence (P18493 whole entry)": "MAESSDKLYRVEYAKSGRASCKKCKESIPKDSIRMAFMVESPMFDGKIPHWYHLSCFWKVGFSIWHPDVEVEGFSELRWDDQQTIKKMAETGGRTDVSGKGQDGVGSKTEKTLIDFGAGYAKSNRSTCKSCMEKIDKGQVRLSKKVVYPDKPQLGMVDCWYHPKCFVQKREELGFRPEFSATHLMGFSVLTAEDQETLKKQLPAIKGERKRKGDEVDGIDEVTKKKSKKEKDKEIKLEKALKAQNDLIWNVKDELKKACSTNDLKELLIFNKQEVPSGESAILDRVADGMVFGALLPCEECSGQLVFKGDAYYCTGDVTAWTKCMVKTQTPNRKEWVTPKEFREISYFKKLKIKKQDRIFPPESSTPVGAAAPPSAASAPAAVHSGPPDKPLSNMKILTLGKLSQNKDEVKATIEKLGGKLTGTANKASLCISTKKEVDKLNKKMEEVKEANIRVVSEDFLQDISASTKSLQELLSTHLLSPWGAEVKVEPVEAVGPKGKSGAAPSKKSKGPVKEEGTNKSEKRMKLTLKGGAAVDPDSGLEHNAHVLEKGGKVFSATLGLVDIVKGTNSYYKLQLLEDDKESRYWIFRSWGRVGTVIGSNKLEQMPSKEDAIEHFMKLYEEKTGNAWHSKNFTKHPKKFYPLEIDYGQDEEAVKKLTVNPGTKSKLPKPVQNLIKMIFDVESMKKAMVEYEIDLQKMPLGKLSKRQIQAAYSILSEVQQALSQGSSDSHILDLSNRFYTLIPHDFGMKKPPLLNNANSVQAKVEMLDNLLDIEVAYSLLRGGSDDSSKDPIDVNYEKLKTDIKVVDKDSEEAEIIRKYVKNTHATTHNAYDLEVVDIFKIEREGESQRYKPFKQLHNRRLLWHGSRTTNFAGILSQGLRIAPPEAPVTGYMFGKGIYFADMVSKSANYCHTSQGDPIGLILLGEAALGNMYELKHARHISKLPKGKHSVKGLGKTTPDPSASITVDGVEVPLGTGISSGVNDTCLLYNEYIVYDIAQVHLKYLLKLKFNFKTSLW", "settings": "cited from earlier work"}, "[3]": {"system": "cells exposed to radiation", "settings": "cited from earlier work"}, "V79 cells": {"system": "V79 cells", "assay": "In vitro radiosensitizing activity at 37°: shoulder modifying effects (reduction in Dq)", "assay_type": "cell-based", "experimental": "The shoulder region represents the inherent repair capabilities of a given cell line. […] To determine the hypoxic x-ray dose response, cells are rendered hypoxic four hours prior to the addition of the test compound by placing them in a 37° C. incubator within an anaerobic glove chamber (Forma). […] Drug is added (0.1 ml into 2 ml media in petri dish) within the anaerobic chamber and drug treatment is at the highest nontoxic dose for one hour at 37°. The oxic x-ray dose response is determined in a similar manner except that all manipulations are carried out in air. […] Cytotoxicity controls (drug only, no irradiation) are included as well as oxic and hypoxic untreated controls (irradiation only, no drug). Immediately following irradiation, cells are rinsed twice with 2 ml fresh media prior to the addition of 5 ml of fresh media. The cells are then incubated at 37° C. After six days, dishes are stained with crystal violet and colonies of 50 or more cells are counted to determine percent surviving cells versus x-ray dose. […] This is expressed by percent reduction in Dq where Dq is defined as the dose at the intersection of the regression line for the logarithmic portion of the survival curve with the 100% survival level. This is taken to represent the width of the shoulder region of the survival curve."}, "[4]": {"molecular_target": "T1, Poly(ADP-ribose) synthetase", "assay": "Inhibition of Poly(ADP-ribose) synthetase", "assay_type": "biochemical, calf", "settings": "30° C., 15 minutes, [3H]NAD; read-out: IC50", "procedure": "The enzyme assay is performed by placing the following in small glass tubes kept at 4°: 100 μl of buffer consisting of 0.5M Tris-HCl pH 8.0, 50 mM MgCl2, and 5 mM dithiothreitol; 50 μl of 1 mM [^3 H]nicotinamide adenine dinucleotide having a specific activity of 15 μCi/μmol; 100 μl of calf thymus DNA (0.3 mg/ml in water); 50 μl of calf thymus histone (Sigma, Type IIA, 0.5 mg/ml); 50 μl of inhibitor or inhibitor solvent; 150 μl of enzyme. The components are thoroughly mixed and warmed to 30° C. in a water bath. After 15 minutes the reaction is stopped by adding 2 ml of ice cold 15% trichloroacetic acid and the tubes are placed on ice for 15 minutes. The precipitate is collected on glass fiber filters and washed five times with ice cold 15% trichloroacetic acid. The filters were dried and radioactivity determined in a liquid scintillation counter."}, "KHT fibrosarcoma tumors": {"system": "KHT fibrosarcoma tumors", "assay": "In vivo assay for radiosensitization activity", "set-up": "species or system hybrid mice (B6C3F1)", "settings": "KHT tumors in mice, relative to misonidazole", "experimental": "In Vivo Assay for Radiosensitization Activity\nFor this assay KHT fibrosarcoma tumors in hybrid mice (B6C3F1) weighing 20-25 g are used. The mice are randomized and implanted SC with the appropriate tumor brei on Day 0 (one implant/mouse). Samples from each donor tumor and/or from the final brei are incubated in thioglycolate media as a check for gross bacterial contamination. On Day 8 tumors are measured in two dimensions with calipers and animals with tumor masses in the range of 500 to 700 mg are selected for the assay. At this point the tumors contain approximately 20% hypoxic cells.\nThe test agents are dissolved in any of several vehicles at a fixed injection dose equal to 90-100% of the maximum tolerated dose. Additional suitable controls of test compound (no irradiation) and vehicle-injected and irradiated mice are also included. Mice are irradiated at a dose of 1700 RADs at various intervals both prior to and after intraperitoneal administration of the test agents.\nBy using these intervals, an indication of both the optimum time to irradiate and the degree of sensitization are obtained. Irradiation of the KHT tumors is by whole body irradiation of animals in movement restricting jigs at different total exposures as indicated. The x-ray source is a Phillips 320 KV instrument with a half-value thickness of 2.0 mm copper and a target to source distance of 17 inches, with a delivery rate of 2.0 Gy/minute. Animals are monitored for signs of acute toxicity after treatment.\nAfter incubation for 12-16 days at 37° and staining, the colonies are counted. The data are expressed as % control versus time."}, "L1210 cells": {"system": "L1210 cells", "assay": "Inhibition of the repair of radiation-induced DNA damage as assessed by alkaline elution", "assay_type": "cell-based", "settings": "L1210 cells, 10 Gy x-rays, class symbols", "experimental": "Inhibition of the Repair of Radiation-Induced DNA Damage as Assessed by Alkaline Elution The basic alkaline elution assay is carried out according to the procedure of K. W. Kohn, […]. Erickson, and L. A. Zwelling in DNA Repair: A Laboratory Manual of Research Procedures (eds. E. C. Freidburg and […]) with slight modifications. Briefly, suspension cultures of exponentially growing L1210 cells (total of 4×10^6 cells) are labeled with 0.02 μCi/ml of [^14 C] thymidine plus 1 nmol/ml of unlabeled thymidine for 24 hours prior to use. L1210 cells used as an internal standard are grown in media supplemented with 0.1 μCi/ml of [^3 H]thymidine and 1 nmol/ml unlabeled thymidine. For the elution protocol cells are removed from the culture flasks, centrifuged, and resuspended in fresh media. Drug treatment for experimental cells is for one hour at 37°. After the treatment period control and drug-treated cells are given a dose of 10 Gy of x-rays and incubated at 37° C. for 10 minutes to allow for repair. Samples consisting of 5×10^5 cells contained in 5 ml of ice cold PBS are deposited directly on 25 mm polycarbonate filters (2 micron pore size). The cells are washed with 5 ml of cold PBS, then lysed by the addition of 5 ml of lysis solution (0.2% SDS, 0.25M tetrasodium EDTA pH 9.7). All procedures commencing at the time of lysis are carried out in the dark. Subsequent to lysis samples are treated with 2 ml of lysis solution containing proteinase-K (0.5 mg/ml) for one hour. The filters are then eluted with tetrapropyl ammonium hydroxide/0.025M EDTA (free acid form)/0.1% SDS, pH 12.1, at a constant flow rate of 0.037 ml/min. Fractions of 2 ml are collected in scintillation vials. […] To each fraction collected and the filter solution 15 ml of modified Ready-Gel scintillation fluid containing 0.7% acetic acid is added. The frequency of single-stranded DNA breakage was calculated as described by Kohn, et al. The data is corrected for the number of single-strand breaks in the […] samples (~20%)."}}, "note": "“Also recorded” adds a separate entry of the source. Where two headings read alike, the source gives them in different places."}
{"smiles": "COCC(O)Cn1ccnc1[N+](=O)[O-]", "note": "(stereo not drawn) [misonidazole, α-(methoxymethyl)-2-nitro-1H-imidazole-1-ethanol]", "values": [{"measurement": "CNS side effects", "setting": "[1]; administered to mice", "value": "serious adverse CNS side effects"}, {"measurement": "peripheral neuropathy and convulsions", "setting": "[1]", "value": "peripheral neuropathy effects and convolusions in mice"}, {"measurement": "CNS toxicity, use in humans", "setting": "[1]; use in humans", "value": "limiting factor for their use in humans"}, {"measurement": "radiosensitizing activity", "setting": "hypoxic tumor cells", "value": "of value as a radio-sensitizer for hypoxic tumor cells; also recorded: effective as radiosensitizers for hypoxic cells in vivo"}]}
{"smiles": "CNC=O", "note": "[N-methylformamide]", "values": [{"measurement": "sensitization of tumors to radiation", "setting": "tumors", "value": "sensitize tumors to the lethal effects of radiation"}]}
{"smiles": "Cc1ncc([N+](=O)[O-])n1CCO", "note": "[metronidazole, 2-methyl-5-nitro-1H-imidazole-1-ethanol]", "values": [{"measurement": "peripheral neuropathy and convulsions", "setting": "[1]", "value": "peripheral neuropathy effects and convolusions in mice"}, {"measurement": "CNS side effects", "setting": "[1]; mouse, in vivo", "value": "serious adverse CNS side effects"}, {"measurement": "CNS toxicity, use in humans", "setting": "[1]; mouse, in vivo", "value": "limiting factor for their use in humans"}, {"measurement": "radiosensitizing activity", "setting": "hypoxic tumor cells", "value": "effective as radiosensitizers for hypoxic cells in vivo; also recorded: active both in vitro and in vivo as a radiosensitizer"}]}
{"smiles": "NC(=O)c1cccc(N)c1", "note": "[3-aminobenzamide]", "values": [{"measurement": "inhibition of poly(ADP-ribose)synthetase", "setting": "[2]", "value": "previously known best inhibitor of poly(ADP-ribose)synthetase"}, {"measurement": "killing of cells by DNA-damaging agents", "setting": "[3]; certain cell lines", "value": "enhanced killing of these cells by the damaging agents"}, {"measurement": "inhibition of postirradiation repair", "setting": "[3]", "value": "inhibit this postirradiation repair process, thereby sensitizing cells to the lethal effects of radiation; also recorded: inhibited"}, {"measurement": "reduction of Dq", "setting": "V79 cells", "value": "does not reduce Dq"}]}
{"smiles": "Oc1cccc2c(O)nccc12", "note": "[Example I, 1,5-Dihydroxyisoquinoline]", "values": [{"measurement": "IC50", "setting": "[4]", "value": 140, "unit": "nM"}, {"measurement": "In Vivo Radiosensitizing Activity", "setting": "KHT fibrosarcoma tumors", "value": "+"}, {"measurement": "Frequency of Unrepaired Strand Breaks", "setting": "L1210 cells", "value": "+ (101-200)"}, {"measurement": "Shoulder Modification (% Reduction in DQ)", "setting": "V79 cells; hypoxic V79 cells, class symbols", "value": "- (1-14%)"}]}
